Measurements as given in patent publication US11519834B2, “In vitro intestinal drug disposition device” (Enphasys AB, priority 2017, dated 2022).
Read-outs that look alike come from different tables or passages of the source.

Assays:
Caco-2 cells [1] = experiment: Permeation across Caco-2 monolayers in 12-well Transwell plate; format: in vitro ADME, human; settings: Caco-2 monolayer, 1.12 cm^2, 10 μM lucifer yellow
Experimental: (§1) The buffer was spiked with 10 μM lucifer yellow, which was used as a paracellular marker to check monolayer integrity. HBSS containing 4% bovine albumin serum was used in the receiver compartment to ensure sink conditions.
Caco-2 cells were grown on inserts in 12-well Transwell plates (surface area 1.12 cm^2). Transwell plates are typically used for in vitro absorption studies. The experiment was performed at 37° C. at 500 rpm with 400 μl of buffer at the donor and 1.2 ml of buffer at the receiver side.

Caco-2 cells [2] = system: Caco-2 cells
Experimental: as §1
Caco-2 cells were grown on Transwell inserts (diameter […]) and mounted in the device resulting in a surface area of 28.27 cm^2. The receiver compartment contained 180 ml and the donor 60 ml. A magnetic stirrer was used to mix the buffer in the receiver compartment and a stirrer propeller to mix the buffer in the donor compartment.

Caco-2 cells [3] = experiment: Permeation across Caco-2 monolayers in μFlux; format: in vitro ADME, human; settings: Caco-2 monolayer, 0.78 cm^2, 10 μM lucifer yellow
Experimental: HBSS containing 4% bovine albumin serum was used in the receiver compartment to ensure sink conditions. […] Donor and receiver compartments were kept at 37° C. and typically contained 15 ml of buffer. Caco-2 cells were grown in Transwell plates and placed between the compartments resulting in a surface of 0.78 cm^2. Magnetic stirring was used for mixing in both the donor and receiver compartment. The μDISS profiler allowed in situ concentration monitoring with fiber optic probes.

[4] = compared with micronized (ball-milled) danazol, FIG. 7

Row | Compound | Lucifer yellow Papp (Caco-2 cells [1]) [cm/s] | Lucifer yellow Papp (Caco-2 cells [2]) [cm/s] | Lucifer yellow Papp (Caco-2 cells [3]) [cm/s] | absorption [4]
1 | lucifer yellow | 1e-06 | 2.19e-06 | 3.937e-05 | 
2 | C#C[C@]1(O)CC[C@H]2[C@@H]3CCC4=Cc5oncc5C[C@]4(C)[C@H]3CC[C@@]21C [Unprocessed crystalline danazol, danazol] |  |  |  | much lower absorption
